Assay results from publication PMC10616419 (The Journal of Biological Chemistry, 2023).
Several values for one entry are separate records, joined by “and”; a condition that tells them apart may be missing. Equal entries are not always repeated. Where two headings read alike, the source gives them in different places.

Tests used:
[1] = biological target: T1, YYYA concatemer rat TRPV1 (single Y511A mutant binding site) (Rattus norvegicus, UniProt O35433, Y511A); type: cell-based
T1 construct: expressed in transfected cells; host or cells: TSA201 (HEK293T) cells, transient transfection; excised inside-out patches

[2] = biological target: T2, YYAA concatemer rat TRPV1 (two Y511A mutant subunits) (Rattus norvegicus, UniProt O35433, Y511A); type: cell-based
T2 construct: expressed in transfected cells; host or cells: TSA201 (HEK293T) cells, transient transfection; excised inside-out patches

[3] = biological target: T3, Y511A mutant subunit of rat TRPV1 (YYYA and YYAA concatemers) (Rattus norvegicus, UniProt O35433, Y511A); type: cell-based
T3 construct: expressed in transfected cells; host or cells: TSA201 (HEK293T) cells, transient transfection

wildtype mouse TRPV1 = biological target: T4, wildtype mouse TRPV1 (Mus musculus, UniProt Q704Y3); assay: cell-based; type: cell-based
T4 construct: expressed in transfected cells; host or cells: TSA201 (HEK293T) cells, transient transfection

Y512A mutant mouse TRPV1 [4] = biological target: T5, Y512A mutant mouse TRPV1 (Mus musculus, UniProt Q704Y3, Y512A); assay: cell-based; type: cell-based
T5 construct: expressed in transfected cells; host or cells: TSA201 (HEK293T) cells, transient transfection

TRPV1 [5] = type: cell-based
TRPV1 [6] = conditions: cited from earlier work
[7] = biological target: T1, YYYA concatemer rat TRPV1 (single Y511A mutant binding site); conditions: cited from earlier work
TRPV1 [8] = biological target: TRPV1 (Rattus norvegicus, UniProt O35433); conditions: cited from earlier work
TRPV1 [9] = biological target: TRPV1 (Rattus norvegicus, UniProt O35433, Y511A); conditions: cited from earlier work
[10] = tested on: Y511A mutant subunit of rat TRPV1 (YYYA and YYAA concatemers); type: cell-based
[11] = biological target: T6, wildtype (Y) subunit of rat TRPV1 concatemers (Rattus norvegicus, UniProt O35433); type: cell-based
T6 construct: expressed in transfected cells; host or cells: TSA201 (HEK293T) cells, transient transfection

[12] = biological target: T7, Y511A (A) mutant subunit of rat TRPV1 concatemers (Rattus norvegicus, UniProt O35433, Y511A); type: cell-based
T7 construct: expressed in transfected cells; host or cells: TSA201 (HEK293T) cells, transient transfection

Y512A mutant mouse TRPV1 [13] = biological target: T5, Y512A mutant mouse TRPV1; conditions: cited from earlier work

T4 sequence (Q704Y3 whole entry): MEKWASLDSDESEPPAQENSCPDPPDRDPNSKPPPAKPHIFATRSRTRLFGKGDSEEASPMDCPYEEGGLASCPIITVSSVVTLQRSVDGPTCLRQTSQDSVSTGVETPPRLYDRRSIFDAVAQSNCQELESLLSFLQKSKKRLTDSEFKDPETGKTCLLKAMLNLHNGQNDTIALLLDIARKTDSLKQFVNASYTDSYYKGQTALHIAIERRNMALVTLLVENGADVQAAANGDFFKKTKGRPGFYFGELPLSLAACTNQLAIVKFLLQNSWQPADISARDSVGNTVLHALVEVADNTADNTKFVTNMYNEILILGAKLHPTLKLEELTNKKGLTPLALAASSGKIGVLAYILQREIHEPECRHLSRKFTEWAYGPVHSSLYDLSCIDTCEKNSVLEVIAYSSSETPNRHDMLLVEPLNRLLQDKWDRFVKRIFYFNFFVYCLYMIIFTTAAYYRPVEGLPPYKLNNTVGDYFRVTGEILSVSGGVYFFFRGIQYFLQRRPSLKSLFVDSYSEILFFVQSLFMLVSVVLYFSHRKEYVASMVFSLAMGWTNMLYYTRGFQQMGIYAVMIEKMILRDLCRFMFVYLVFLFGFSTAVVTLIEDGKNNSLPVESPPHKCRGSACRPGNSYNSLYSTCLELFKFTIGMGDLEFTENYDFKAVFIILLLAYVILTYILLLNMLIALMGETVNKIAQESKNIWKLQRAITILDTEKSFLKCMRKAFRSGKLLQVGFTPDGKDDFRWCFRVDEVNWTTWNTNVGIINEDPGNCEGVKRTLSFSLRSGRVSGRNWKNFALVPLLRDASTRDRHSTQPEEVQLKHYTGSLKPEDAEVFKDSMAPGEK
T5 sequence (Q704Y3 whole entry Y512A): as the sequence (Q704Y3 whole entry) above, with Y512A counted along it
T1 sequence (O35433 whole entry, stated change not applied): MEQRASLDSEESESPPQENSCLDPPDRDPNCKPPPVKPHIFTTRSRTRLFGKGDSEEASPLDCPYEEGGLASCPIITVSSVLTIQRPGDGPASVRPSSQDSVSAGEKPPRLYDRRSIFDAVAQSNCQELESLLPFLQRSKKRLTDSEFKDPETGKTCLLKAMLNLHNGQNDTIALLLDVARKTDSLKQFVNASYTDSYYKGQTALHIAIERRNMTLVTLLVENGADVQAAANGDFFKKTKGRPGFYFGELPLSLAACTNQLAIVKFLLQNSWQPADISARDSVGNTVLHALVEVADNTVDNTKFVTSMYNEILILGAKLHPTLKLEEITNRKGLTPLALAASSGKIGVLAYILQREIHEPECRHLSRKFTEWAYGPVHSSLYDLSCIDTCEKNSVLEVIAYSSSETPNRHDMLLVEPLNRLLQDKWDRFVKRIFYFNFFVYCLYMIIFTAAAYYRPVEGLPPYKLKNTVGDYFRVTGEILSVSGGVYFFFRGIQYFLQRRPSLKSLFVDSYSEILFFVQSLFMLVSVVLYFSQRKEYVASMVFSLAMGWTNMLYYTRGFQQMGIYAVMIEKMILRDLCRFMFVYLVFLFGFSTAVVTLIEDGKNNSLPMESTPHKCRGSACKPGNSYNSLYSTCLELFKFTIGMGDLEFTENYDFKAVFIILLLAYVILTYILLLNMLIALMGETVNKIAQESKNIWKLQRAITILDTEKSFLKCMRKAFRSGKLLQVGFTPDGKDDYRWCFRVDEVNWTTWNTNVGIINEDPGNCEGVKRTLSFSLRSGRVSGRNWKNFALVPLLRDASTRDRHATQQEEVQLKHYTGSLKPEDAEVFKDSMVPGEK
T1 sequence (O35433 whole entry, stated change not applied): as above
T1 sequence (O35433 whole entry, stated change not applied): as above
T1 sequence (O35433 whole entry Y511A): as the sequence (O35433 whole entry, stated change not applied) above, with Y511A counted along it
T2 sequence (O35433 whole entry, stated change not applied): as the sequence (O35433 whole entry, stated change not applied) above
T2 sequence (O35433 whole entry, stated change not applied): as above
T2 sequence (O35433 whole entry Y511A): as the sequence (O35433 whole entry, stated change not applied) above, with Y511A counted along it
T2 sequence (O35433 whole entry Y511A): as the sequence (O35433 whole entry, stated change not applied) above, with Y511A counted along it
T3 sequence (O35433 whole entry Y511A): as the sequence (O35433 whole entry, stated change not applied) above, with Y511A counted along it
T3 sequence (O35433 whole entry partner): as the sequence (O35433 whole entry, stated change not applied) above
T6 sequence (O35433 whole entry): as the sequence (O35433 whole entry, stated change not applied) above
Sequence of TRPV1 (Rattus norvegicus, UniProt O35433) (O35433 whole entry): as the sequence (O35433 whole entry, stated change not applied) above
T7 sequence (O35433 whole entry Y511A): as the sequence (O35433 whole entry, stated change not applied) above, with Y511A counted along it
Sequence of TRPV1 (Rattus norvegicus, UniProt O35433, Y511A) (O35433 whole entry Y511A): as the sequence (O35433 whole entry, stated change not applied) above, with Y511A counted along it

For 6′-iodo-RTX [6′-iRTX], the “channel activation with three molecules bound” value [1] was “barely activated”, the “L2, equilibrium constant before capsaicin” value [2] was 0.01 and the “L2, equilibrium constant before capsaicin application” value [2] was 0.008. For the same compound, the L [3] was 0.01, the “L with three prebound 6′-iRTX” value [3] was 0.02 and the “L with two prebound 6′-iRTX” value [3] was 0.02. For the same compound, the binding reversibility (wildtype mouse TRPV1) was “binds irreversibly”, the “channel activity produced on perfusion” value (wildtype mouse TRPV1) was “weak channel activities” and the binding reversibility (Y512A mutant mouse TRPV1 [4]) was “could be washed off”. For the same compound, the agonist type (TRPV1 [5]) was “weak agonist” and the agonist type (TRPV1 [6]) was “weak partial agonist”.

In the case of `NCCOB(c1ccccc1)c1ccccc1` [2-APB, 2-aminoethoxydiphenyl borate], the “activation after perfusing 6′-iRTX” value (wildtype mouse TRPV1) is reported as “could still activate these channels”.

With `C=C(C)[C@]12C[C@@H](C)[C@@]34O[C@](Cc5ccccc5)(O[C@@H]1[C@@H]3C=C(COC(=O)Cc1ccc(O)c(OC)c1)C[C@]1(O)C(=O)C(C)=C[C@@H]41)O2` [RTX, resiniferatoxin] the “L2, equilibrium constant before capsaicin” value [2] was 0.97, the “L2, equilibrium constant before capsaicin application” value [2] was 0.96 and the “initial Po level with wildtype binding sites preloaded” value [2] was “approximately 50%”. The L [3] was 0.96, the “L with two prebound RTX” value [3] was 0.94 and the agonist type (TRPV1 [5]) was “full agonist”. For the same compound, the “Po with three RTX molecules bound” value [7] was “approximately 99%”, the binding reversibility (TRPV1 [8]) was “binds irreversibly” and the binding reversibility (TRPV1 [9]) was “can be washed off”.

In the case of `COc1cc(CNC(=O)CCCC/C=C/C(C)C)ccc1O` [capsaicin], the Hill slope [1] is reported as 0.96, the Hill slope [2] is reported as 0.88 and the “Po reached on application of capsaicin” value [2] is reported as about 100%. The “a factor (cooperativity between the two capsaicin binding steps; 0.25 = independent)” value [2] was 0.27, the cooperative factor f [2] was 8.9 and 11.8 and the cooperative factor f [3] was 12.1 and 8.9. For the same compound, the “capsaicin association constant K” value [10] was 49000 M⁻¹, the cooperative factor f [10] was 8.0 and the KY [11] was 2.4e+06 M⁻¹. It also gave a fA [12] of 12.9, an EC50 (wildtype mouse TRPV1) of 0.11 µM and a Kd (wildtype mouse TRPV1) of 0.244 µM. The “activation after perfusing 6′-iRTX” value (wildtype mouse TRPV1) was “lost its activation effect”, the “slope factor (Hill function)” value (wildtype mouse TRPV1) was 1.3 and the EC50 (Y512A mutant mouse TRPV1 [4]) was 22 µM. The Kd (Y512A mutant mouse TRPV1 [4]) was 52.6 µM, the “slope factor (Hill function)” value (Y512A mutant mouse TRPV1 [4]) was 2.3 and the EC50 (Y512A mutant mouse TRPV1 [13]) was 13 µM.
